Laboratory results reported in patent US11110078B2, “Composition and method for treatment of diseases associated with central nervous system inflammation” (AMRITA VISHWA VIDYAPEETHAM, priority 2019, dated 2021).

Tests used:
[1] = Distribution into brain of EAE mice; format: in vivo
Procedure: (§1) The GMFBI.1 compound distribution in various compartments (organs, plasma & urine) of normal healthy mice at different time intervals (30 minutes, 1, 2, 3 and 6 hours) and its distribution profile (n=3 per group), is shown in FIG. 6C. […] Further, again 300 μg of GMFBI.1 was injected in EAE animals and the blood brain barrier is compromised as in MS patients. […] Based on these observations, mice was injected twice daily with 300 μg/mice (12 mg/Kg) GMFBI.1 for 25 days. Both AST and ALT activity was measured at 3, 10 and 25 days.
(§2) Treatment was given to a group of animals with average clinical score of 3 for a period of 2 weeks. EAE induced animals were injected at clinical score 3.5 with GMFBI.1 compound 300 μg/mice (12 mg/Kg) twice daily at day 13.EAE clinical scores of C57BL/6 mice treated with GMFBI.1 compound ([…] i.p twice daily) and controls with saline (n=5 per group) is shown in FIG. 7A.

[2] = In vivo toxicity: serum AST and ALT liver enzymes; design: species or system mice; settings: 3, 10 and 25 days
Procedure: In vitro efficacy of GMFBI.1 compound in down regulating the expression of both proinflammatory mediators p38MAPK and NFκB under the control of GMF-β and its non-toxic nature at lower concentrations was first evaluated. The levels of aspartate amino transferase (AST) and alanine amino transferase (ALT) were measured spectrophotometrically from serum of GMFBI.1 compound administered animals to monitor its liver function as shown in FIG. 6A and FIG. 6B respectively. […] Grey shaded region denotes the normal range of AST and ALT enzymes in mice in FIG. 6A and FIG. 6B respectively.
The GMFBI.1 compound distribution in various compartments (organs, plasma & urine) of normal healthy mice at different time intervals (30 minutes, 1, 2, 3 and 6 hours) and its distribution profile (n=3 per group), is shown in FIG. 6C. […] Further, again 300 μg of GMFBI.1 was injected in EAE animals and the blood brain barrier is compromised as in MS patients. […] Both AST and ALT activity was measured at 3, 10 and 25 days.

[3] = tested on: proinflammatory and anti-inflammatory cytokines; assay: Cytokine levels in treated EAE animals (relative fold change); format: in vivo, C57BL/6 mice
Source text: From FIG. 7G, it is observed that down regulation of these inflammatory cytokines has potential significance in the therapy and increased levels of anti-inflammatory cytokines particularly IL-10 and TGF beta levels. In MS patients, the levels of TGF beta and IL-10 are low compared to healthy individuals and significant down regulation of IL-17 are promising as IL-17 drives the inflammation in EAE and MS disease.

NFκB = NFκB expression in LPS stimulated cultured astrocytes; format: cell-based; settings: 500 ng/mL, n=3
p38MAPK = p38MAPK expression in LPS stimulated cultured astrocytes; format: cell-based; settings: 500 ng/mL, n=3
EAE induced animals [4] = assay: Leukocyte infiltrates in brain and spinal cord of EAE animals by H and E staining; format: in vivo, C57BL/6 mice; settings: 25 days after treatment, versus saline treated EAE controls, P<0.05, n=3
Source text: (§3) Animals were sacrificed 25 days after GMFBI.1 compound treatment and the levels of leukocyte infiltrates in brain as shown in FIG. 7C and spinal cord as shown in FIG. 7D were compared against EAE control by Haematoxylin and Eosin(H and E) staining.

GMF-β = GMF-β (Homo sapiens, UniProt P60983); assay: In vitro phosphorylation of purified GMF-β by PKA; format: biochemical; settings: 250 ng/mL GMFBI.1, 1 μg/mL GMF-β, versus lane without compound
Procedure: With the in silico proof of concept showing high binding efficacy to GMF-β phosphorylation sites, in vitro phosphorylation studies using PKA (PKA phosphorylation results in activation of the downstream proinflammatory cascade) and purified GMF-β in presence and absence of GMFBI.1 compound is performed. […] In FIG. 4B, “+” sign indicates experiment with 1 μg/mL GMF-β and PKA, “−” indicates control reaction in the absence of PKA and “GMFBI.1” indicates phosphorylation level on GMF-β in the presence of small molecule GMFBI.1 (250 ng/mL).

EAE induced animals [5] = assay: Reversal of EAE: clinical scores in paralyzed EAE animals; format: in vivo, C57BL/6 mice
Procedure: as §2, §3

[6] = Bio-distribution in compartments of normal healthy mice; format: in vivo, C57BL/6 mice; settings: 300 μg intraperitoneal
Procedure: as §1

astrocytes = assay: MTT cell viability assay on cultured astrocytes; format: cell-based; settings: 48 hours incubation, 0-3 mg/mL tested
Procedure: In order to test whether virtually screened GMFBI.1 drug like compound is toxic to the cells, different concentrations (0-3 mg/mL) of GMFBI.1 on astrocytes were tested. Test includes performing MTT cell viability assay following 48 hours of incubation with GMFBI.1. […] NC represents […] with 10% Triton X-100.

[7] = 300 μg/mice twice daily for 25 days
[8] = versus untreated EAE controls, n=3

Chain of GMF-β (P60983 2-142 limits assumed): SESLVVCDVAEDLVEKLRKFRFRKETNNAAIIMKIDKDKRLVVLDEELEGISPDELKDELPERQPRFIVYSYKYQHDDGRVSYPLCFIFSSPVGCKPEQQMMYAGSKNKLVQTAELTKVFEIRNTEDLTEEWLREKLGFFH

amount of compound in brain by 3 hrs ([1]; 300 μg injected, EAE animals): ≤ 15 µg
compound in brain by 6 hrs ([1]; 300 μg injected, EAE animals): no GMFBI.1 may be detected in the brain
time by which compound is detected in brain ([1]; 300 μg injected, EAE animals): ≤ 2 h
blood brain barrier crossing ([1]; EAE mice): able to cross the blood brain barrier
retention in the system ([1]; EAE mice): at least three hours
phosphorylation of GMF-β by PKA (GMF-β): several fold decrease in phosphorylation
amount of compound in liver within three hours [6]: significantly reduced compared to 2 hrs
compound in kidney within three hours [6]: transiently seen in kidney
compound in urine within three hours [6]: found majorly in urine
Structure (SMILES): OCc1cccc2[nH]ncc12 [GMFBI.1, (1-H Indazol-4-yl)-methanol]
ALT activity level versus control [2, 7]: remained similar to that of control
AST activity level versus control [2, 7]: remained similar to that of control
serum ALT level versus saline controls ([2]; 14 mg/kg twice daily): No significant difference
serum AST level versus saline controls ([2]; 14 mg/kg twice daily): No significant difference
IL1-β level ([3]; following treatment): down regulated significantly
GMCSF level ([3]; versus EAE controls, n=3): significant decrease
IFN-γ level ([3]; versus EAE controls, n=3): significant decrease
IL-6 level ([3]; versus EAE controls, n=3): significant decrease
IL-17A level ([3]; versus EAE controls, n=3): significant decrease
TNF-α level ([3]; versus EAE controls, n=3): significant decrease
IL-10 level (anti-inflammatory) [3, 8]: elevated significantly
TGF-β level (anti-inflammatory) [3, 8]: elevated significantly
NFκB protein expression (NFκB): statistically significant suppression
p38MAPK protein expression (p38MAPK): statistically significant suppression
number of cellular infiltrates in brain (EAE induced animals [4]): significant reduction in the number of cellular infiltrates
number of cellular infiltrates in spinal cord (EAE induced animals [4]): significant reduction in the number of cellular infiltrates
EAE clinical score by day 18 (EAE induced animals [5]; 300 μg/mice (12 mg/Kg; also printed 14 mg/kg i.p) twice daily from day 13, n=5): the clinical score started to improve
clinical score versus control (EAE induced animals [5]; from 7th day after treatment, P<0.001): Significant reduction in the clinical score
body weight over time versus control animals (EAE induced animals [5]; treated EAE animals): significant weight gain
EAE clinical score by day 40 (EAE induced animals [5]; twice daily i.p. from day 13): very low clinical score
locomotor motion by day 30 (EAE induced animals [5]; twice daily i.p. from day 13): able to show improvements in locomotor motion and was able to walk
compound in brain of healthy mice at any time period [6]: no GMFBI.1 compound was detected in the brains
compound in plasma at 30 mins to 1 hr [6]: most of the GMFBI.1 compound remained in the plasma
compound in plasma by two hours [6]: no GMFBI.1 compound could be detected in plasma
free compound in organs by 6 hrs [6]: no free GMFBI.1 compound in any of the organs were detected
concentration up to which astrocytes remained viable (astrocytes): ≤ 1000 µg/mL
